Like-named read-outs stand apart in the source and are kept apart here.
How the values were obtained:
hBPGM = target: T1, hBPGM (Homo sapiens, UniProt P07738); assay: BPGM synthase assay; assay type: biochemical
T1 sequence (P07738 1-259): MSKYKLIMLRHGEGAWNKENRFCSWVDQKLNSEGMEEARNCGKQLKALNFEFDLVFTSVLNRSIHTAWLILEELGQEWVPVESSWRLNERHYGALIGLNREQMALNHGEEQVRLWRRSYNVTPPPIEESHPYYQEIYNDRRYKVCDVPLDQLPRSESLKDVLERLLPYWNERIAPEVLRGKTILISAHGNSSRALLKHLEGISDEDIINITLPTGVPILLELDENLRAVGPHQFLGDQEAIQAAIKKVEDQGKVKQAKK
Description: The following materials were used in this assay: deionized water; Bisphosphoglycerate mutase (BPGM; Standard Buffer: 50 mM Tris, 0.01% Tween 20, pH 7.4); BPGM Reaction Buffer (50 mM Tris, 0.01% Tween 20, 3.23 mM KH2PO4, pH 7.4); dithiothreitol (DTT; Stock solution: 100 mM in Standard Buffer); 384-Well Black Assay Plate (Corning, P/N 3575); DMSO; BPGM Stock Solution (500 nM in BPGM Standard Buffer); Glyceraldehyde 3-phosphate dehydrogenase (GAPDH; Stock Solution: 40 U/mL in 20 mM Tris-HCL Buffer with 20% Glycerol, 1 mM EDTA, 1 mM DTT); Glyceraldehyde 3-phosphate (GAP; Stock Solution: 20 mM in BPGM Standard Buffer); 3-PG Stock Solution (500 μM in BPGM Standard Buffer); Nicotinamide adenine dinucleotide (NAD; Stock Solution: 50 mM in BPGM Standard Buffer); Koningic Acid (1 mM Stock in DMSO); Resazurin Stock Solution (10 mM in DMSO); Diaphorase Stock Solution (40 U/mL in BPGM Standard Buffer); DTT Reaction Buffer (1 mM DTT in BPGM Reaction Buffer); Enzyme Solution (5 nM BPGM, 0.4 U/mL GAPDH in DTT Reaction Buffer); GAPDH Solution (0.4 U/mL GAPDH in DTT Reaction Buffer); Substrate Solution (2 mM NAD, 20 μM 3PG, 800 μM GAP in DTT Reaction Buffer); and Resazurin Solution (5 U/mL Diaphorase, 500 μM Resazurin in BPGM Standard Buffer).
To the assay plate was added Enzyme Solution (20 uL) to columns 2-22 and 24 of the assay plate. To columns 1 and 23 was added GAPDH Solution (20 uL). A separate compound plate was prepared at the desired concentrations and all wells were normalized with 5% DMSO. The compound plate was incubated for 30 minutes at RT. Next, the substrate solution (20 μL) was dispensed to all reaction wells and the plate was incubated for 60 minutes at RT. Koningic acid (1 μL) was added and the plate was incubated for 10 minutes at RT. During this time period, the NADH fluorescence was read at ex: 360/em: 460. Next, Resazurin Solution (10 μL) was added to all reaction wells and the plate was incubated for 30 minutes at RT. The resorufin fluorescence was then read at ex:544/em:590.

[1] = target: T2, human Bisphosphoglycerate mutase (hBPGM) (Homo sapiens, UniProt P07738); assay: BPGM phosphatase assay; assay type: biochemical
T2 sequence (P07738 1-259): T1 sequence (P07738 1-259)
Description: The following materials were used in this assay: Tris buffer (50 mM Tris, 0.01% Tween 20, pH 7.4); cyclohexylammonium salt of 2,3-BPG (stock solution of 500 mM in ultapure distilled water; human Bisphosphoglycerate mutase (hBPGM; stock solution of 110 μM in Standard Buffer); 3-Phosphoglyceric acid (3-PG; stock solution of 100 mM in ultrapure distilled water); 384-Well Polystyrene Plates (Fisherbrand™, Catalog No.: 12-566-625); BIOMOL GREEN REAGENT (Enzo life sciences, BML-AK111-0250); and 1 mM DMSO stock of exemplary compounds.
A 3-PG enzyme mix solution (final enzyme concentration 62.5 nM, 3-PG concentration at 50 µM, 14.5 uL) was added to onto a 384-well clear plate. Solutions of the test compounds were then added to the plate and the DMSO content was normalized across the plate. The plate was incubated at RT for 15 min. Next, the substrate 2,3-BPG (5 μL) was added to all the wells, and the plate was sealed and incubated for 24 hr at RT. After incubation, BIOMOL green dye (40 μL) was added to all the wells, the plate was shaken to mix, and the plate was incubated at RT for 20-30 min. Absorbance measurements were recorded at 620 nm.

[2] = Table 6, read-out: huBPGM: synthase Enzyme IC50
[3] = Table 6, read-out: huBPGM: phosphatase Enzyme EC50
[4] = Table 4, read-out: hBPGM Phosphatase EC50

Row | SMILES | IC50 (hBPGM; [2]) [nM] | also measured
1 | Cc1nc(COC(=O)N(C)C)sc1-c1csc(-c2cc(F)c(O)c(F)c2F)n1 [Example 137] | 230 | EC50 [1, 3]: 200 nM
2 | Cc1nc(COc2ncccn2)sc1-c1cccc(-c2ccc3nn[nH]c3c2)n1 [compound 14] | – | IC50 (hBPGM; Table 3, read-out: hBPGM Synthase IC50): 1010 nM; EC50 [1, 4]: 570 nM
3 | Cc1nc(COc2cccnn2)sc1-c1csc(-c2cc(F)c3[nH]nnc3c2)n1 [compound 7] | – | EC50 [1, 4]: 55 nM; EC50 [1, 3]: 55 nM
4 | Cc1nc(CN/C(=N/C#N)N(C)C)sc1-c1cccc(-c2cc(F)c(O)c(F)c2F)n1 [Example 27] | 1500 | –
5 | Cc1nc(COCC(=O)N2CCC(O)C2)sc1-c1cccc(-c2cc(F)c3nn[nH]c3c2F)n1 (stereo not drawn) [Example 76] | 1100 | –
6 | Cc1nc(COc2ncccn2)sc1-c1csc(-c2cc(F)c(C#N)c(O)c2F)n1 [Example 33] | 250 | –
7 | Cc1nc(COc2ccccn2)sc1-c1ccnc(-c2cc(F)c3nn[nH]c3c2F)n1 [Example 41] | 75 | –
8 | Cc1nc(CNCC(C)(C)C)sc1-c1cccc(-c2cc(F)c3nn[nH]c3c2F)n1 [Example 56] | 260 | –
9 | COCc1nc(C)c(-c2cccc(-c3cc(F)c4nn[nH]c4c3F)n2)s1 [Example 34] | 250 | –
10 | Cc1nc(COC(=O)N2CCC(N)C2)sc1-c1cccc(-c2cc(F)c(O)c(F)c2F)n1 (stereo not drawn) [Example 29] | 5700 | –
11 | Cc1nc(COc2ccccn2)sc1-c1csc(-c2cc(F)c(OP(=O)(O)O)c(F)c2F)n1 [Example 81] | 3000 | –
12 | Cc1nc(CNC(=O)c2cccnn2)sc1-c1nc(-c2cc(F)c3nn[nH]c3c2F)cs1 [Example 43] | 14 | –
13 | Cc1nc(COCC(=O)C2CCNCC2)sc1-c1csc(-c2cc(F)c(O)c(F)c2F)n1 [Example 94] | > 25000 | –
14 | Cc1nc(NC(=O)OC(C)(C)C)sc1-c1cccc(-c2cc(F)c3[nH]nnc3c2F)n1 [Example 30] | 200 | –
15 | Cc1nc(CN2CCCC2=O)sc1-c1cccc(-c2cc(F)c3nn[nH]c3c2F)n1 [Example 26] | 110 | –
16 | Cc1nc(CNC(=O)N2CCC(O)C2)sc1-c1csc(-c2cc(F)c(O)c(F)c2F)n1 (stereo not drawn) [Example 92] | 2300 | –
17 | Cc1nc(CO)sc1-c1cccc(-c2cc(F)c3nn[nH]c3c2F)n1 [Example 91] | 640 | –
18 | Cc1nc(CNC(=O)N(C)C)sc1-c1cccc(-c2cc(F)c(O)c(F)c2F)n1 [Example 28] | 1600 | –
19 | Cc1nc(COC(=O)N2CCC(O)C2)sc1-c1cccc(-c2cc(F)c3nn[nH]c3c2F)c1 (stereo not drawn) [Example 62] | 350 | –
20 | Cc1nc(COCC(=O)N(C)C)sc1-c1cccc(-c2cc(F)c3nn[nH]c3c2F)n1 [Example 64] | 43 | –
21 | Cc1nc(COc2cccnn2)sc1-c1csc(-c2cc(F)c3[nH]nnc3c2F)n1 [Example 38] | 36 | –
22 | Cc1nc(C)c(-c2cccc(-c3cc(F)c4nn[nH]c4c3F)n2)s1 [Example 90] | 340 | –
23 | Cc1nc(C(=O)N2CCC(O)C2)sc1-c1cccc(-c2cc(F)c3[nH]nnc3c2F)n1 (stereo not drawn) [Example 25] | 4400 | –
24 | Cc1nc(CNC(=O)N2CCC(O)C2)sc1-c1cccc(-c2cc(F)c3nn[nH]c3c2F)n1 (stereo not drawn) [Example 61] | 220 | –
25 | Cc1nc(COC(=O)N(C)C)sc1-c1ccn(-c2cc(F)c3[nH]nnc3c2F)n1 [Example 46] | 130 | –
26 | Cc1nc(COC(=O)N2CCC(N(C)C)C2)sc1-c1cccc(-c2cc(F)c3nn[nH]c3c2F)n1 (stereo not drawn) [Example 32] | 76 | –
27 | COCc1nc(C)c(-c2cccc(-c3cc(F)c4nn[nH]c4c3F)n2)s1 [Example 68] | 200 | –
28 | Cc1nc(COc2ncccn2)sc1-c1nc(-c2cc(F)c(O)c(C#N)c2)cs1 [Example 72] | 510 | –
29 | Cc1nc(COc2ncc(Cl)cn2)sc1-c1cccc(-c2cc(F)c3nn[nH]c3c2)n1 [Example 140] | – | EC50 [1, 3]: 30 nM
30 | Cc1nc(COCC(=O)N(C)C)sc1-c1csc(-c2cc(F)c3[nH]nnc3c2F)n1 [Example 49] | 47 | –

Now from value to molecule, other results behind:

Row | IC50 (hBPGM; [2]) [nM] | SMILES | also measured
31 | 3400 | Cc1nc(COc2ccccn2)sc1-c1csc(-c2cc3nn[nH]c3c(F)c2F)n1 [Example 176] | EC50 [1, 3]: 20 nM
32 | 1700 | COC(=O)NCc1nc(C)c(-c2csc(-c3cc(F)c(O)cc3F)n2)s1 [Example 178] | EC50 [1, 3]: 1700 nM
33 | 930 | CC(=O)NCc1nc(C)c(-c2csc(-c3cc(F)c4[nH]nnc4c3)n2)s1 [Example 103] | EC50 [1, 3]: > 25000 nM
34 | 1500 | Cc1nc(COc2ncccn2)sc1-c1cccc(-c2ccc3nnc(O)n3c2)n1 [Example 151] | EC50 [1, 3]: 20000 nM
35 | 510 | Cc1nc(COc2ncccn2)sc1-c1cccc(-c2ccc3nn[nH]c3c2)n1 [Example 131] | EC50 [1, 3]: 570 nM
36 | 440 | Cc1nc(COc2ncccn2)sc1-c1cccc(-c2cc(F)c3[nH]nnc3c2)c1 [Example 177] | EC50 [1, 3]: 250 nM
37 | > 25000 | Cc1nc(COc2ncccn2)sc1-c1cccc(-c2cc[n+]([O-])cc2)n1 [Example 139] | EC50 [1, 3]: > 25000 nM
38 | 810 | COC(=O)NCc1nc(C)c(-c2cccc(-c3cc(F)c(O)c(F)c3F)n2)s1 [Example 171] | EC50 [1, 3]: 1900 nM
39 | 960 | Cc1nc(CNC(=O)C(C)CN(C)C)sc1-c1cccc(-c2cc(F)c3nn[nH]c3c2F)n1 (stereo not drawn) [Example 138] | EC50 [1, 3]: > 25000 nM
40 | 4700 | Cc1nc(COCC(=O)O)sc1-c1csc(-c2cc(F)c(O)c(F)c2F)n1 [Example 99] | EC50 [1, 3]: 7800 nM
41 | 1600 | Cc1nc(CNC(=O)C(C)(C)C)sc1-c1csc(-c2cc(F)c(O)c(F)c2)n1 [Example 196] | EC50 [1, 3]: 4900 nM
42 | > 25000 | COC(=O)NCc1nc(C)c(-c2csc(-c3ccc(C4SC(=O)NC4=O)cc3)n2)s1 (stereo not drawn) [Example 204] | –
43 | > 25000 | Cc1nc(COc2ncccn2)sc1-c1cccc(-c2ccc(-n3cn[nH]c3=O)cc2)n1 [Example 162] | –
44 | 840 | Cc1nc(CNC(=O)C(C)(C)C)sc1-c1ccnc(-c2cc(F)c3nn[nH]c3c2F)n1 [Example 223] | –
45 | 4400 | Cc1nc(COCC(=O)N2CCNCC2)sc1-c1csc(-c2cc(F)c(O)c(F)c2F)n1 [Example 115] | –
46 | 110 | Cc1nc(COC(C)C)sc1-c1cccc(-c2cc(F)c3nn[nH]c3c2F)n1 [Example 236] | –
47 | 22 | Cc1nc(COCC(C)O)sc1-c1cccc(-c2cc(F)c3nn[nH]c3c2F)n1 (stereo not drawn) [Example 237] | –
48 | 2200 | Cc1nnc(-c2cccc(-c3cc(F)c4nn[nH]c4c3F)n2)s1 [Example 232] | –
49 | 3200 | Cc1nc(CNC(=O)N(C)C)sc1-c1csc(-c2cc(F)c3[nH]nnc3c2)n1 [Example 107] | –
50 | 3900 | Cc1nc(COc2ncccn2)sc1-c1cnn(-c2cc(F)c(O)c(F)c2F)c1 [Example 233] | –
51 | 530 | Cc1nc(CNC(=O)c2cnn(C)c2)sc1-c1csc(-c2cc(F)c(O)c(F)c2F)n1 [Example 113] | –
52 | 4500 | Cc1nc(COc2ncccn2)sc1-c1cccc(-c2ccn3c(O)nnc3c2)n1 [Example 149] | –
53 | 170 | Cc1nc(COCCN(C)C)sc1-c1cccc(-c2cc(F)c3nn[nH]c3c2F)n1 [Example 221] | –
54 | 5200 | Cc1nc(COc2ccccn2)sc1-c1csc(-c2cc(F)c(O)c(F)c2)c1 [Example 198] | –
55 | 23000 | COC(=O)NCc1nc(C)c(-c2csc(-c3cnc(O)nc3)n2)s1 [Example 193] | –

Reference: patent US20230348454A1, “COMPOUNDS AS MODULATORS OF BIS-PHOSPHOGLYCERATE MUTASE FOR THE TREATMENT OF SICKLE CELL DISEASE” (Genzyme Corporation, priority 2020, published 2023)
